Data on 13 compounds can be found in ChEMBL document CHEMBL4138086, “Design and synthesis of bis(indolyl)ketohydrazide-hydrazones: Identification of potent and selective novel tubulin inhibitors” (Eur J Med Chem, 2017).

Type in all cases: functional
One assay relates to BT-474. The assay is described as follows: Cytotoxicity against human BT474 cells assessed as cell survival at 10 uM after 48 hrs by MTT assay relative to control. The following applies: BT-474, 48 h, read-out: Survival. A general note: Tetrazolium dyes change colour on reduction, which living cells bring about.
The subject of a further assay is Jurkat. The assay is described as follows: Cytotoxicity against human Jurkat cells assessed as cell survival at 10 uM after 48 hrs by MTT assay relative to control. The following applies: read-out: Survival.
In another assay the test system is MDA-MB-231. The assay is described as follows: Cytotoxicity against human MDA-MB-231 cells assessed as cell survival at 10 uM after 48 hrs by MTT assay relative to control. The following applies: MDA-MB-231, 48 h, read-out: Survival.
Another assay concerns MCF7. Nature of the assay: Cytotoxicity against human MCF7 cells assessed as cell survival at 10 uM after 48 hrs by MTT assay relative to control. The following applies: MCF7, 48 h, read-out: Survival.
Another assay deals with HCT-116. The assay is described as follows: Cytotoxicity against human HCT116 cells assessed as cell survival at 10 uM after 48 hrs by MTT assay relative to control. The following applies: HCT-116, 48 h, read-out: Survival.

Turning to `O=C(N/N=C/c1c[nH]c2cc(Br)ccc12)C(=O)c1c[nH]c2ccccc12`, the viability at 10 µM was 86.8% in the assay on BT-474; 75.4% with Jurkat; 95.1% with MDA-MB-231; 92.7% in the assay with MCF7; 94.5% in the assay with HCT-116.

As to `O=C(N/N=C/c1c[nH]c2cc(F)ccc12)C(=O)c1c[nH]c2ccccc12`, the viability at 10 µM with BT-474 was determined as 88.2%; in the assay with Jurkat, 69.9%; with MDA-MB-231, 106%; in the assay with MCF7, 40.2%; in the assay on HCT-116 it was 104%.

For `O=C(N/N=C/c1c[nH]c2ccc(F)cc12)C(=O)c1c[nH]c2ccccc12`, the viability at 10 µM with BT-474 is 112%; with Jurkat, 56.7%; in the assay on MDA-MB-231 it was 102%; with MCF7 it was 105%; in the assay with HCT-116 it was 85.1%.

As to `COc1ccc(Cn2cc(/C=N/NC(=O)C(=O)c3c[nH]c4ccc(Br)cc34)c3cc(OC)ccc32)cc1`, the viability at 10 µM in the assay with BT-474 is 91.1%; in the assay on Jurkat it was 81.9%; in the assay on MDA-MB-231, 102%; in the assay with MCF7 it was 112%; with HCT-116 it was 65.7%.

With `COc1ccc(-c2[nH]c3ccccc3c2/C=N/NC(=O)C(=O)c2c[nH]c3ccccc23)cc1`, the viability at 10 µM amounted to 94.2% in the assay on BT-474; 81.6% in the assay with Jurkat; 98.8% in the assay with MDA-MB-231; 107% with MCF7; 71.8% with HCT-116.

As for `COc1ccc(/C=N/NC(=O)C(=O)c2c[nH]c3ccccc23)cc1OC`, the viability at 10 µM in the assay with BT-474 was determined as 103%; in the assay on Jurkat, 78.9%; in the assay with MDA-MB-231 it was 94.6%; with MCF7, 99.8%; in the assay on HCT-116 it was 92.8%.

Take `O=C(N/N=C/c1ccncc1)C(=O)c1cn(Cc2ccc(Cl)cc2)c2ccccc12`: the viability at 10 µM with BT-474 was 78.7%; in the assay on Jurkat it was 66.7%; with MDA-MB-231, 71.2%; in the assay on MCF7, 82.2%; in the assay on HCT-116 it was 69.1%.

Consider `O=C(N/N=C/c1cn(Cc2ccc(Cl)cc2)c2ccc(Br)cc12)C(=O)c1c[nH]c2ccccc12`, for which the viability at 10 µM amounted to 94.7% with BT-474; 93.2% with Jurkat; 88.8% with MDA-MB-231; 107% with MCF7; 72.6% in the assay with HCT-116.

Regarding `COc1ccc(/C=N/NC(=O)C(=O)c2c[nH]c3ccccc23)cc1`, the viability at 10 µM is 97.5% in the assay on BT-474; 61.9% in the assay with Jurkat; 102% with MDA-MB-231; 106% in the assay with MCF7; 101% in the assay on HCT-116.

`O=C(N/N=C/c1c[nH]c2cc(F)ccc12)C(=O)c1c[nH]c2ccc(Br)cc12`: the viability at 10 µM with BT-474 came to 94.8%; in the assay with Jurkat it was 95.8%; with MDA-MB-231, 111%; with MCF7, 97.5%; in the assay on HCT-116, 84.2%.

In the case of `COc1cc(/C=N/NC(=O)C(=O)c2c[nH]c3ccccc23)cc(OC)c1OC`, the viability at 10 µM in the assay with BT-474 came to 101%; with Jurkat, 69.6%; with MDA-MB-231, 103%; in the assay on MCF7, 110%; in the assay with HCT-116 it was 99.1%.

As for `COc1ccc2c(/C=N/NC(=O)C(=O)c3c[nH]c4ccc(Br)cc34)c[nH]c2c1`, the viability at 10 µM is 92% in the assay with BT-474; 74.1% in the assay on Jurkat; 112% in the assay on MDA-MB-231; 91.4% in the assay on MCF7; 71.4% with HCT-116.

For the compound `O=C(N/N=C/c1c[nH]c2ccccc12)C(=O)c1c[nH]c2ccccc12`, the viability at 10 µM with BT-474 turned out to be 83%; in the assay with Jurkat, 33.6%; in the assay on MDA-MB-231, 98.6%; with MCF7 it was 99.2%; with HCT-116, 88.4%.
